Data on eight test systems can be found in the supplement of paper PMC10331698.

Common to all, as to test: level (log10 ratio to DMSO vehicle control); higher = higher biomarker level / cell amount than vehicle control
Compound in assay [1]: O=C(O)C(F)(OC(F)(F)C(F)(OC(F)(F)C(F)(OC(F)(F)C(F)(F)C(F)(F)F)C(F)(F)F)C(F)(F)F)C(F)(F)F [Perfluoro-(2,5,8-trimethyl-3,6,9-trioxadodecanoic)acid] (in DMSO)
As for the experimental part: (§1)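 BioMAP Diversity Plus panel of 12 human primary cell co-culture systems (3C, 4H, LPS, SAg, BT, BF4T, BE3C, CASM3C, HDF3CGF, KF3CT, MyoF, Mphg). Compounds were added 1 h before stimulation and left for 24 h (MyoF 48 h; BT 72 h for soluble read-outs or 6 d for IgG). Biomarkers were read by ELISA, cytotoxicity by SRB, PBMC viability and proliferation by Alamar Blue. Each well value was divided by the mean of 8 DMSO control wells on the same plate and log10 transformed; duplicate blinded samples were tested at 4 concentrations.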

Compound in assay [2]: O=S(=O)(O)CCC(F)(F)C(F)(F)C(F)(F)C(F)(F)C(F)(F)C(F)(F)C(F)(F)C(F)(F)F [8:2 Fluorotelomer sulfonic acid] (in DMSO)
As to the method: as §1

Compound in assay [3]: OCC(F)(F)OC(F)(F)C(F)(F)OC(F)(F)C(F)(F)OC(F)(F)CO [1H,1H,11H,11H-Perfluorotetraethylene glycol] (in DMSO)
As for the experimental part: as §1

Compound in assay [4]: CO[Si](C)(CCC(F)(F)C(F)(F)C(F)(F)C(F)(F)C(F)(F)C(F)(F)F)OC [Dimethoxymethyl((perfluorohexyl)ethyl)silane] (in DMSO)
As to the method: as §1

Compound in assay [5]: C[C@@H]1C[C@H]2[C@@H]3CCC4=CC(=O)C=C[C@]4(C)[C@@]3(F)[C@@H](O)C[C@]2(C)[C@@]1(O)C(=O)COP(=O)(O)O [Dexamethasone sodium phosphate] (in DMSO)
As for the experimental part:
as §1

Compound in assay [6]: OCCC(F)(F)C(F)(F)C(F)(F)C(F)(F)F [4:2 Fluorotelomer alcohol] (in DMSO)
As for the experimental part: as §1

± gives the standard deviation of the averaged measurements.

For the test system BF4T:uPA, the “level (log10)” value stood at 0.008 ± 0.0028 in assay [1] (1100 nM); 0.0015 ± 0.0035 in assay [1] (3300 nM); 0.004 ± 0.0071 in assay [1] (10000 nM); 0.012 ± 0.0085 in assay [2] (6700 nM); 0.0055 ± 0.00071 in assay [2] (20000 nM); 0.0175 ± 0.0092 in assay [2] (60000 nM). Further, the “level (log10)” value is -0.0125 ± 0.018 in assay [3] (6700 nM); -0.0155 ± 0.013 in assay [3] (20000 nM); -0.0215 ± 0.0064 in assay [3] (60000 nM); -0.0095 ± 0.00071 in assay [4] (6700 nM); -0.014 ± 0.0085 in assay [4] (20000 nM); 0.006 ± 0.025 in assay [5] (1500 nM). Besides, the “level (log10)” value in assay [5] (4400 nM) is -0.013 ± 0.045; in assay [5] (13000 nM) it was -0.002 ± 0.013; in assay [5] (40000 nM), -0.002 ± 0.0028; in assay [6] (6700 nM) it was -0.008 ± 0.035; in assay [6] (20000 nM) it was 0.012 ± 0.013; in assay [6] (60000 nM) it was 0.018 ± 0.025.

Consider BT:B cell Proliferation, for which the “level (log10)” value in assay [1] (1100 nM) is -0.029 ± 0.027; in assay [1] (3300 nM) it was -0.0035 ± 0.013; in assay [1] (10000 nM), -0.0145 ± 0.011; in assay [2] (6700 nM), 0.016 ± 0.016; in assay [2] (20000 nM) it was 0.0415 ± 0.005; in assay [2] (60000 nM) it was 0.0475 ± 0.033. Moreover, the “level (log10)” value is 0.0215 ± 0.0021 in assay [3] (6700 nM); -0.0175 ± 0.021 in assay [3] (20000 nM); -0.051 ± 0.011 in assay [3] (60000 nM); 0.0085 ± 0.011 in assay [4] (6700 nM); 0.023 ± 0.0042 in assay [4] (20000 nM); -0.0145 ± 0.011 in assay [5] (1500 nM). For the same test system, the “level (log10)” value is 0.005 ± 0.013 in assay [5] (4400 nM); -0.0245 ± 0.019 in assay [5] (13000 nM); -0.0025 ± 0.015 in assay [5] (40000 nM); 0.0125 ± 0.0035 in assay [6] (6700 nM); 0.0155 ± 0.033 in assay [6] (20000 nM); 0.019 ± 0.0042 in assay [6] (60000 nM).

For the test system BT:PBMC Cytotoxicity, the “level (log10)” value in assay [1] (1100 nM) was -0.0095 ± 0.0092; in assay [1] (3300 nM) it was -0.022 ± 0.011; in assay [1] (10000 nM), -0.04 ± 0.047; in assay [2] (6700 nM), 0.006 ± 0.018; in assay [2] (20000 nM), 0.0115 ± 0.005; in assay [2] (60000 nM) it was 0.0505 ± 0.018. Further, the “level (log10)” value in assay [3] (6700 nM) was 0.019 ± 0.0042; in assay [3] (20000 nM), -0.018 ± 0.03; in assay [3] (60000 nM) it was -0.0425 ± 0.028; in assay [4] (6700 nM) it was -0.0015 ± 0.0021; in assay [4] (20000 nM), 0.023 ± 0.0028; in assay [5] (1500 nM) it was -0.0915 ± 0.00071. The “level (log10)” value in assay [5] (4400 nM) was -0.102 ± 0.028; in assay [5] (13000 nM) it was -0.107 ± 0.0064; in assay [5] (40000 nM), -0.0975 ± 0.039; in assay [6] (6700 nM), -0.044 ± 0.0042; in assay [6] (20000 nM), -0.0365 ± 0.013; in assay [6] (60000 nM), -0.045 ± 0.031.

For BT:Secreted IgG, the “level (log10)” value was 0.0215 ± 0.049 in assay [1] (1100 nM); 0.0315 ± 0.013 in assay [1] (3300 nM); 0.0065 ± 0.021 in assay [1] (10000 nM); 0.032 ± 0.0099 in assay [2] (6700 nM); -0.014 ± 0.031 in assay [2] (20000 nM); -0.025 ± 0.014 in assay [2] (60000 nM). The “level (log10)” value is -0.093 ± 0.0099 in assay [3] (6700 nM); -0.135 ± 0.0071 in assay [3] (20000 nM); -0.374 ± 0.055 in assay [3] (60000 nM); 0.0505 ± 0.0078 in assay [4] (6700 nM); 0.021 ± 0.018 in assay [4] (20000 nM); 0.024 ± 0.0085 in assay [5] (1500 nM). Besides, the “level (log10)” value was 0.002 in assay [5] (4400 nM); 0.034 ± 0.011 in assay [5] (13000 nM); 0.0025 ± 0.036 in assay [5] (40000 nM); 0.023 ± 0.028 in assay [6] (6700 nM); 0.0205 ± 0.018 in assay [6] (20000 nM); 0.013 ± 0.0057 in assay [6] (60000 nM).

Consider BT:sIL-2, for which the “level (log10)” value in assay [1] (1100 nM) was 0 ± 0.05; in assay [1] (3300 nM), 0.061 ± 0.069; in assay [1] (10000 nM) it was 0.0465 ± 0.026; in assay [2] (6700 nM), -0.023 ± 0.073; in assay [2] (20000 nM) it was 0.0195 ± 0.057; in assay [2] (60000 nM), 0.009 ± 0.011. For the same test system, the “level (log10)” value in assay [3] (6700 nM) was 0.0295 ± 0.12; in assay [3] (20000 nM), 0.0865 ± 0.1; in assay [3] (60000 nM), 0.005 ± 0.13; in assay [4] (6700 nM) it was -0.0455 ± 0.12; in assay [4] (20000 nM) it was 0.0425 ± 0.026; in assay [5] (1500 nM), -0.442 ± 0.033. In addition, the “level (log10)” value in assay [5] (4400 nM) was -0.451 ± 0.12; in assay [5] (13000 nM), -0.458 ± 0.039; in assay [5] (40000 nM) it was -0.456 ± 0.032; in assay [6] (6700 nM), 0.0085 ± 0.064; in assay [6] (20000 nM), 0.0625 ± 0.11; in assay [6] (60000 nM) it was 0.0265 ± 0.071.

For the test system BT:sIL-6, the “level (log10)” value in assay [1] (1100 nM) was -0.0085 ± 0.07; in assay [1] (3300 nM), 0.0025 ± 0.053; in assay [1] (10000 nM), 0.038 ± 0.013; in assay [2] (6700 nM), 0.015 ± 0.035; in assay [2] (20000 nM), 0.0445 ± 0.015; in assay [2] (60000 nM) it was -0.005 ± 0.085. The “level (log10)” value in assay [3] (6700 nM) is -0.025 ± 0.014; in assay [3] (20000 nM) it was -0.101 ± 0.048; in assay [3] (60000 nM) it was -0.302 ± 0.017; in assay [4] (6700 nM) it was -0.038 ± 0.076; in assay [4] (20000 nM), 0.0465 ± 0.14; in assay [5] (1500 nM), -0.2605 ± 0.0021. Further, the “level (log10)” value in assay [5] (4400 nM) is -0.281 ± 0.07; in assay [5] (13000 nM) it was -0.3065 ± 0.0021; in assay [5] (40000 nM), -0.33 ± 0.061; in assay [6] (6700 nM) it was 0.035 ± 0.02; in assay [6] (20000 nM), 0.0455 ± 0.036; in assay [6] (60000 nM), 0.009 ± 0.069.

BT:sIL-17A: the “level (log10)” value was -0.024 ± 0.11 in assay [1] (1100 nM); 0.121 ± 0.12 in assay [1] (3300 nM); 0.0575 ± 0.17 in assay [1] (10000 nM); -0.152 ± 0.057 in assay [2] (6700 nM); -0.012 ± 0.013 in assay [2] (20000 nM); -0.0805 ± 0.16 in assay [2] (60000 nM). The “level (log10)” value in assay [3] (6700 nM) is -0.075 ± 0.069; in assay [3] (20000 nM), -0.105 ± 0.032; in assay [3] (60000 nM), -0.337 ± 0.18; in assay [4] (6700 nM) it was -0.0265 ± 0.029; in assay [4] (20000 nM), -0.025 ± 0.17; in assay [5] (1500 nM) it was -0.776 ± 0.019. Besides, the “level (log10)” value in assay [5] (4400 nM) is -0.55 ± 0.03; in assay [5] (13000 nM), -0.652 ± 0.057; in assay [5] (40000 nM) it was -0.717 ± 0.042; in assay [6] (6700 nM), -0.007 ± 0.21; in assay [6] (20000 nM) it was -0.043 ± 0.11; in assay [6] (60000 nM) it was -0.037 ± 0.18.

On to BT:sIL-17F, for which the “level (log10)” value in assay [1] (1100 nM) was 0.044 ± 0.064; in assay [1] (3300 nM), 0.0125 ± 0.16; in assay [1] (10000 nM), -0.0705 ± 0.046; in assay [2] (6700 nM), -0.0295 ± 0.091; in assay [2] (20000 nM) it was 0.053 ± 0.0071; in assay [2] (60000 nM), 0.018. Further, the “level (log10)” value was -0.0185 ± 0.015 in assay [3] (6700 nM); -0.176 in assay [3] (20000 nM); -0.396 ± 0.044 in assay [3] (60000 nM); 0.074 ± 0.0014 in assay [4] (6700 nM); 0.102 ± 0.064 in assay [4] (20000 nM); -0.259 ± 0.0099 in assay [5] (1500 nM). The “level (log10)” value in assay [5] (4400 nM) is -0.251 ± 0.058; in assay [5] (13000 nM) it was -0.262 ± 0.012; in assay [5] (40000 nM), -0.239 ± 0.047; in assay [6] (6700 nM), 0.0025 ± 0.03; in assay [6] (20000 nM) it was 0.075 ± 0.055; in assay [6] (60000 nM) it was 0.0675 ± 0.14.
